# Results from patent US11078496B2, “System for F-box hormone receptor regulated protein expression in mammalian cells” (ICAHN SCHOOL OF MEDICINE AT MOUNT SINAI, priority 2016, dated 2021).
# Biological target: T1, AID^47-CHK1 (A-CHK1) (UniProt P93830+Q7XVM8)
# T1 construct: (encoding NP_001052659); 47-amino acid segment that corresponds to amino acids 63-109 of A. thaliana IAA17; expressed in transfected cells; host or cells: CCE mESCs (lentiviral pRAIDRS)
# Experiment: Auxin-dependent depletion of A-CHK1 in mESCs (western blot)
# Type: cell-based, mouse
# Procedure: FIG. 5A is a western blot analysis depicting endogenous CHK1 (*) and AID^47-CHK1 (A-CHK1, **) in four selected clones and in parental non-infected mESCs. […] serves as a loading control. Experiment was repeated three times for clones #1 and #2, and a representative blot is presented. In FIG. 5B, A-CHK1 #2 mESCs were treated with ethanol (“Con”) or auxin (“IAA”) for 1 day. Cells were then treated with the indicated concentrations of aphidicolin (“Aph”). Equal concentrations of DMSO were applied to all conditions. The next day, cells were stained with crystal violet and plates were scanned. […] In FIG. 5C, mESC clones were pretreated with […] aphidicolin for 1 day and were then treated with auxin for the indicated time periods. Left panel: mitotic index was calculated as the percentage of H3^pS10-positive cells with 4N DNA content, measured by flow cytometry. Right panel: dot plots for A-CHK1 #2 mESCs treated with auxin for 0 or 45 minutes. Mitotic cells are gated. FIG. 5D show bright-field microscope images of cells treated as in FIG. 5C. Images show synchronous cell rounding, a feature of late mitotic cells, 2 hours following auxin treatment in aphidicolin-treated A-CHK1 #2 cells. FIG. 5E is a western blot analysis of cells treated as in FIG. 5C. Tyr15 phosphorylation of CDK1 (“CDKlpY^15”) was detected using a phospho-specific antibody. β-Actin serves as a loading control. […] Error bars represent standard deviation of three technical replicates. […]
# Cells were lysed in RIPA-B buffer (20 mM Na2HPO4 pH 7.4, 150 mM NaCl and 1% Triton X-100) supplemented with Protease Inhibitor Cocktail (Roche) for 30 minutes on ice with occasional vortexing, followed by 30 minutes centrifugation at 13,000 relative centrifugal force at 4° C. […] Luminescence was detected with X-ray films, which were scanned, or using the Bio-Rad ChemiDoc MP System. […] Quantification of protein level was performed using the ImageJ software (Schneider et al., “NIH Image to ImageJ: 25 Years of Image Analysis,” Nat. Methods 9:671-675 2012), which is hereby incorporated by reference in its entirety). […]
# T1 sequence (Q7XVM8 whole entry, the tested form may be a part): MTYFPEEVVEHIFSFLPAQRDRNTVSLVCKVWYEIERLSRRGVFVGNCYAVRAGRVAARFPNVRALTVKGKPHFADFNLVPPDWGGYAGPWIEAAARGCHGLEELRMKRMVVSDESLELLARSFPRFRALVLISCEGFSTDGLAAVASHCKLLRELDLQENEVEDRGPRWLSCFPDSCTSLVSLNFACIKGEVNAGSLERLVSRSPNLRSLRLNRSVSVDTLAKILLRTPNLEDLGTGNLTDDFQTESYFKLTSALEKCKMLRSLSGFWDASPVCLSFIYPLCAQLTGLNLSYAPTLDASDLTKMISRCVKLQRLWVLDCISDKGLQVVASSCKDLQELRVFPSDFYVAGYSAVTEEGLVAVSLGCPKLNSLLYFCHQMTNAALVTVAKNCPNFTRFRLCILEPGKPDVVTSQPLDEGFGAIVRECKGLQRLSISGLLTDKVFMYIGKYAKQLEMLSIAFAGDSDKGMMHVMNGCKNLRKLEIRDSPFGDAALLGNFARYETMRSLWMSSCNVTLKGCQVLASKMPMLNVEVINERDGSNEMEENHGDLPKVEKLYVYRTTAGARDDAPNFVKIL
# T1 sequence (P93830 63-109): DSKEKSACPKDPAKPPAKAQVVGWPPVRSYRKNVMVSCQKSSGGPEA
compound,measurement,setting,value
"O=C(O)Cc1c[nH]c2ccccc12 [auxin, indole-3-acetic acid]",time of auxin-dependent depletion of CHK1,aphidicolin-treated mESCs,20 min
same,time for >95% degradation of CHK1,"pRAIDRS system, auxin-dependent protein depletion",20 to 30 min
same,auxin-dependent degradation of A-CHK1,"selected mESC clones, western blot",complete auxin-dependent degradation
